“Also recorded” adds a separate entry of the source. Read-outs that look alike come from different tables or passages of the source.
Experiments:
[1] = test system: antigen induced arthritis (AIA); test: Antigen induced arthritis (AIA) rat model, knee joint swelling; format: in vivo; details: for effect on knee swelling, curative treatment: 1 mg/kg BW i.v. daily, start on day 0 or day 1, vs vehicle
[2] = biological target: T1, Kv1.3 channels endogenously expressed in TEM cells (Homo sapiens, UniProt P22001); test: Block of Kv1.3 currents in isolated human TEM cells (Example 4); format: cell-based; details: incompletely folded peptide
T1 construct: endogenously expressed Kv1.3 channels in TEM cells; endogenous in cells
T1 sequence (P22001 whole entry): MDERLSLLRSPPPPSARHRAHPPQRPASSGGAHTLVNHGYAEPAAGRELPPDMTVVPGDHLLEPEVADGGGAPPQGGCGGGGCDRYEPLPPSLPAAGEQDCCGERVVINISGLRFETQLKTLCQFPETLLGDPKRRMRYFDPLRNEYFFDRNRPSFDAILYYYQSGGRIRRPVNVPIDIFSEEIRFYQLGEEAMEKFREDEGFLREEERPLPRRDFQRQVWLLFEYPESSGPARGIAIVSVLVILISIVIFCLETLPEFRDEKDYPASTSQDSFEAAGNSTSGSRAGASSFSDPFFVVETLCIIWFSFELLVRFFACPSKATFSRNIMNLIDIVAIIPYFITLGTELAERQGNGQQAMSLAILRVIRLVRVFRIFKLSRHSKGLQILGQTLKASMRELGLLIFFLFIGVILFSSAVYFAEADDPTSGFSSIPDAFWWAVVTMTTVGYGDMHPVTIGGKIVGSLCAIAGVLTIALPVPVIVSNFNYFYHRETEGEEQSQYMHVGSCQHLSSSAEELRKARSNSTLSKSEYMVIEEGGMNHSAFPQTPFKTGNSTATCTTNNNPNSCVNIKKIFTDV
Source text: The insect cell line Spodoptera frugiperda (Sf21) was used in combination with a Baculovirus infection system for the heterologous expression of recombinant ion channels. Sf21 cells offer highly specific protein expression and correct posttranslational modifications resulting in functional channels with proposed comparability of electrophysiological parameters of ion channels in vivo. Therefore, it was necessary to compare the electrophysiological properties of the potassium selective ion channel Kv1.3 expressed in Sf21 cells and endogenously expressed Kv1.3 channels in TEM cells.
For the comparison of characteristic voltage dependent Kv1.3 channel activation a typical voltage protocol from −60 mV to +60 mV in 20 mV steps (activation pulse 200 ms) was used. Cells were clamped at a holding potential of −100 mV.
The maximal observed current, which clearly originates from Kv1.3 activity, and the applied voltage allows to assess the total conductivity of all Kv1.3 channels. Accordingly, the number of channels can be extracted using the known conductivity of a single Kv1.3 channel. […] By variation of the infection conditions, it is possible to control the expression level of Kv1.3 in Sf21 cells, according to the needs of the investigation. Under our standard conditions a maximal current of 2-5 nA, a conductance of 33-50 nS and a number of 2500-3800 channels per cell can be estimated. […]

[3] = biological target: T2, Kv1.3 channels expressed in Sf21 insect cells (Homo sapiens, UniProt P22001); test: Stability ex vivo in rat blood plasma, read out as IC50 on Kv1.3 (Example 3); format: in vitro ADME
T2 construct: expressed in transfected cells; host or cells: Sf21 insect cells, baculovirus infection
T2 sequence (P22001 whole entry): as above
Method: The aim was to test the stability of the cgtx-544 peptide in blood plasma of mammals after different incubation times at room temperature (RT) and 37° C. Stability was defined as IC50 value of cgtx-544 after different incubation times at RT and 37° C. Blood plasma was prepared from fresh blood samples from healthy rats or humans. Heparin was added to fresh blood samples to prevent clogging. Plasma preparation was performed by centrifugation for 2 min at 2000×g at RT.
As the cgtx-544 peptide used in these experiments was incompletely folded, a higher IC50 than normal was determined.
To investigate the stability and activity in plasma the peptide was added to freshly prepared human and rat blood plasma at a final concentration of 2 μM. The samples were split into two aliquots and incubated at 37° C. and at room temperature (RT, 20° C.). For the electrophysiological analysis serial dilutions of the samples were prepared.

[4] = Biochemical properties: isoelectric point; format: physicochemical
[5] = biological target: T3, human Kv1.3 (hKv1.3) channel (Homo sapiens, UniProt P22001); test: Planar patch clamp (Port-A-Patch) of Kv1.3 potassium currents in Sf 21 cells (Example 1); format: cell-based
T3 construct: expressed in transfected cells; host or cells: Sf21 (Spodoptera frugiperda) insect cells, baculovirus infection
T3 sequence (P22001 whole entry): as above
Method: Potassium currents were measured by use of Spodoptera frugiperda (Sf 21) cells, which express the human Kv1.3 (hKv1.3) channel. The channel activity is induced upon membrane depolarization to voltages more positive than −40 mV. […] In Sf 21 cells hKv1.3 has an average current amplitude between 250 pA-5 nA at +40 mV.
1-3 days after infection potassium currents were recorded with the planar patch clamp technique, using the Port-A-Patch (Nanion Technologies GmbH). Ionic currents were activated by voltage steps to a depolarizing potential of +40 mV for 200 ms.
Sf 21 cells were cultured in Grace's insect cell medium supplemented with 10% FBS (Fetal Bovine Serum), 2 mM Glutamine, 1×Yeastolate (from 50× stock solution) and 0.1% Pluronic® F68 (BASF) to a cell density of 2-3×10^6 cells/ml.
External buffer: 160 mM NaCl • 4.5 mM KCl • 1 mM MgCl2 • 2 mM CaCl2 • 5 mM D-Glucose monohydrate • 10 mM HEPES/NaoH pH7.4
Internal buffer: 75 mM KCl • 10 mM NaCl • 70 mM K-Fluoride • 2 mM MgCl2 • 10 mM EGTA • 10 mM HEPES/KOH pH 7.2
Peptides were dissolved at 1 μg/μl in 20 mM NaPO4 buffer pH 8.2 (1 mg in 1 ml folding buffer) and dialysed against the same buffer 3×1 L, Float-a-Lyzer cut off 500 Da (Spectrapor) at room temperature.
HsTx 1 binding was tested at various concentrations of e.g. 100 pM, 1 nM, 10 nM, 50 nM, 100 nM, 500 nM, and 1 μM—depending on the tested channel. […]

in vivo = format: in vivo; details: rat, i.v., 750 μg/kg BW; listed as cgtx-544
Method: FIG. 34 Decrease of cgtx-544(Sing) in the serum of treated rats after i.v. injection. The concentration of unbound circulating cgtx-544(Sing) was calculated on the basis of a standard curve. Standard error of the mean is depicted in the error bars (n=6).
Rats received i.v. injections of cgtx-544(Sing) (750 μg/kg BW). Blood was withdrawn at time points 0, 1, 10 and 60 minutes. Subsequently, serum was prepared from blood samples. The cgtx-544 content in these samples was analyzed electrophysiologically by measuring the blocking effect on Kv1.3 channels expressed in CHO cells. […] In order to study the amount of unbound cgtx-544(Sing) in the rat, the amount of cgtx-544(Sing) present in the circulating blood at the time points referred above was calculated through a calibration curve. This calibration curve was obtained by adding known quantities of cgtx-544(Sing) to blood serum and subsequent electrophysiological measurements on Kv1.3 channels. The block of Kv1.3 currents by these spiked samples was similar to that obtained with cgtx-544(Sing) in the absence of serum (data not shown).

With `CC[C@H](C)[C@H](NC(=O)[C@@H](N)[C@@H](C)O)C(=O)N[C@H](C(=O)N[C@@H](CC(N)=O)C(=O)N[C@H](C(=O)N[C@@H](CCCCN)C(=O)N[C@H]1CSSC[C@@H]2NC(=O)[C@H](CCCCN)NC(=O)CNC(=O)[C@H](Cc3ccc(O)cc3)NC(=O)[C@@H]3CCCN3C(=O)[C@@H]3CSSC[C@@H](C(=O)O)NC(=O)[C@H](CCCNC(=N)N)NC(=O)[C@H](CC(N)=O)NC(=O)[C@@H]4CSSC[C@H](NC(=O)[C@@H]5CCCN5C(=O)[C@@H]5CCCN5C(=O)[C@H](CC(C)C)NC(=O)[C@H](CSSC[C@H](NC(=O)[C@H](CCCCN)NC(=O)[C@H](CCCNC(=N)N)NC(=O)[C@H](CC(N)=O)NC(=O)[C@H](CCSC)NC2=O)C(=O)N[C@@H](CCCCN)C(=O)N4)NC(=O)[C@H](CCC(N)=O)NC(=O)[C@H](CCCCN)NC(=O)[C@@H]2CCCN2C(=O)[C@H](CO)NC(=O)[C@H]([C@@H](C)O)NC1=O)C(=O)N[C@@H](CCCCN)C(=O)N[C@@H](C)C(=O)N[C@@H](CCC(N)=O)C(=O)N[C@@H]([C@@H](C)O)C(=O)NCC(=O)N3)C(C)C)[C@@H](C)CC` [Compound 7] the “relative difference of knee swelling (normalized)” value ([1]; 1 mg/kg 1× daily i.v. from day −3) was 0.18±0.05, the “reduction of knee swelling relative to the vehicle control group” value ([1]; 1 mg/kg 1× daily i.v., 24 h after arthritis induction) was 60% and the “effect on knee swelling after second single injection” value ([1]; 1 mg/kg BW i.v. 1×d1 and 1×d4, listed as cgtx-544) was “reduced again to a significant value; also recorded: statistically significant reduction in knee swelling”. For the same compound, the “effect on knee swelling, curative treatment” value ([1]; listed as cgtx-544) was “statistically significant reduction in knee swelling”, the “effect on knee swelling, curative treatment” value ([1]; listed as cgtx-544(Mix)) was “clear reducing, and statistically significant effect; also recorded: significant reduction in knee joint swelling” and the “knee joint swelling versus untreated (excipient) controls” value ([1]; 1 mg/kg BW i.v. from day −3) was “clear reduction of the knee joint swelling”. For the same compound, the “knee diameters after seven days of treatment, curative” value ([1]; 1 mg/kg i.v. daily, start day 0 or day 1) was “nearly comparable to the non-induced, intra-individual control knee”, the “maximal reduction of knee swelling, curative treatment” value ([1]; 1 mg/kg i.v. daily, therapy started on day 0 immediately after arthritis induction) was 40% and the “maximal reduction of knee swelling, curative treatment” value ([1]; 1 mg/kg i.v. daily, therapy started on day 1) was 58%. For the same compound, the “effect on knee swelling, preventive treatment” value ([1]; 0.1, 1 and 5 mg/kg BW i.v. daily, day −3 to day 6, vs vehicle, listed as cgtx-544) was “clear reducing, dose dependent and statistically significant effect; also recorded: statistically significant reduction in knee swelling”, the “knee diameters after seven days of treatment, preventive” value ([1]; daily i.v. from day −3) was “nearly comparable to the non-induced, intra-individual control knee” and the “maximal reduction of knee swelling, preventive treatment” value ([1]; daily i.v. from day −3) was 70%. For the same compound, the “effect on knee swelling after single injection” value ([1]; single i.v. injection 1 mg/kg BW on day 1 (1×d1), 24 h after application, listed as cgtx-544, 1 mg/kg) was “clear and statistically significant reduction of knee swelling; also recorded: statistically significant reduction in knee swelling; also recorded: strong and sustained effect”, the “Kv1.3 block on human TEM cells compared with Kv1.3 transfected Sf21 cells” value [2] was “the same values” and the “significant change in activity” value ([3]; 24 h, 37° C. and RT) was “could not be detected”. For the same compound, the “activity after incubation in plasma” value ([3]; 48 h at RT) was “remained unchanged”, the “activity after incubation in plasma” value ([3]; 14 days at 37° C.) was “no activity was detected” and the “activity after incubation in plasma” value ([3]; 14 days at RT) was “unchanged activity”. It also gave an IC50 ([3]; read-out: IC50 on Kv1.3 after incubation in plasma, 48 h at 37° C.) of 57.8 nM, an IC50 ([3]; read-out: IC50 on Kv1.3 in plasma, time point 0 h) of 15 nM and an Isoelectric point [4] of 9.29. The “selectivity for Kv1.3 vs. Kv1.1 compared to HsTx 1” value [5] was “higher selectivity”, the IC50 ([5]; read-out: IC50 on Kv1.3 before the start of the plasma stability experiment, incompletely folded peptide, n=5 cells, Sf21) was 46.1 nM and the in vivo half-life (in vivo) was “approximately 26 min”.

Source: US10800815B2, “Kv1.3 potassium channel antagonists” (cgtx-Peptide Development GmbH, priority 2014, dated 2020)
